Activity calls are given as the source filed them. How the calls were made is not given here.

The target in the first assay is Breakpoint cluster region protein (Homo sapiens) (UniProt P11274). Description: breakpoint cluster region GTPase-activating protein domain inhibitors, dose-response, specificity counterscreen for MgcRacGAP inhibitor project, cell-free, Rac1 GTPase, Biomol Green phosphate readout (AID 652149). The note with it: BCR GAP/Rac1 GTPase, Biomol green phosphate absorbance. (A counterscreen serves to expose hits that act by an unwanted route or on another target.)
Sequence of Breakpoint cluster region protein (Homo sapiens) (P11274 whole entry, looked up, the tested form may be a part): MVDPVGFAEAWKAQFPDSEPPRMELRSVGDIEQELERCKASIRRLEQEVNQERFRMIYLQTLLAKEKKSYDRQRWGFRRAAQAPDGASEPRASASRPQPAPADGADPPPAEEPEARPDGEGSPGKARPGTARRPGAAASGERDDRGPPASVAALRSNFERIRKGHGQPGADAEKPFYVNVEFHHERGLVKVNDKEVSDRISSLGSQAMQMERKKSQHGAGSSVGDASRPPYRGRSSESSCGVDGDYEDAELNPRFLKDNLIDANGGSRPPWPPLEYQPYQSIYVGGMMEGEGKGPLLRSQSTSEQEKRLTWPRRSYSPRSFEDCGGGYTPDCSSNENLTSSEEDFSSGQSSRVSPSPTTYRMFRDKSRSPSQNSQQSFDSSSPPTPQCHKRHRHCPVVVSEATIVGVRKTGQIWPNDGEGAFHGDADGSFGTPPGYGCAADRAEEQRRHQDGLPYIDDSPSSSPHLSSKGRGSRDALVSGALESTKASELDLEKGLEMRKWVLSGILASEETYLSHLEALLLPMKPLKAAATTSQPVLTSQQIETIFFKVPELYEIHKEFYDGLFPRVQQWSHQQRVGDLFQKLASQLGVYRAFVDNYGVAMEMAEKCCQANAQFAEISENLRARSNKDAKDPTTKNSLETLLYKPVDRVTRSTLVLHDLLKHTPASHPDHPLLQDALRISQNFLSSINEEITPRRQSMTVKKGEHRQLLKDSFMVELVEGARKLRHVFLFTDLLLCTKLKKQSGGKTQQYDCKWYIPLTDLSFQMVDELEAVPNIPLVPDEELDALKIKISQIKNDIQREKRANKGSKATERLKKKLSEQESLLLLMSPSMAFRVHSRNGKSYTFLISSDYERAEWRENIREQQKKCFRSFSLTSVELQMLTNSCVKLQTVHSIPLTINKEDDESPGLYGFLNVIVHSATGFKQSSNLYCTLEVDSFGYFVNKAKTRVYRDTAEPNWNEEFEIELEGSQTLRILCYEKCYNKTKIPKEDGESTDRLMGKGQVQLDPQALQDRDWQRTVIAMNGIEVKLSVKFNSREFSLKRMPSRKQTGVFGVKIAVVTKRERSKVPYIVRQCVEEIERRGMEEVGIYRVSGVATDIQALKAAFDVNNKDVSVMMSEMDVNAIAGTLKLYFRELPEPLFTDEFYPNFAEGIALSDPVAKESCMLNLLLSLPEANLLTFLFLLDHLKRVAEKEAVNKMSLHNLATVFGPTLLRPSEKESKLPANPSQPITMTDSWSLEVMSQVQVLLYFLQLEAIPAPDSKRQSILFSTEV
Broadly, the IC50 is the concentration that gives 50% inhibition. Consider `COc1ccc(-n2sc3ccc(F)cc3c2=O)cc1`, for which the IC50 worked out at 9.82 µM. Regarding `O=c1c2ccccc2sn1-c1ccccc1F`, the IC50 is 32.8 µM. Turning to `CSc1nc(N)c(N=Nc2ccc([As](=O)(O)O)cc2)c(=O)[nH]1`, the IC50 was 5.86 µM. With `O=C1C=CC(=O)N1c1ccccc1N1C(=O)C=CC1=O`, the IC50 is 22.1 µM. On the same count and under the same terms, under `COc1ccc(Nc2ccc3ccccc3c2)cc1` stands 5.93 µM.

Consider `COC(=O)c1cccc(-n2sc3ccccc3c2=O)c1`, for which the IC50 amounted to 14.8 µM. Same read-out and setting: for `CC(=O)Nc1ccc2sn(-c3ccccc3)c(=O)c2c1` the value was 27.4 µM; for `Nc1n[nH]c(=S)n1/N=C1/C(=O)Nc2ccccc21`, 14.6 µM.

For `O=C(O)c1cccc(-n2sc3ccccc3c2=O)c1`, the IC50 came out at 9.61 µM. On the same count and under the same terms, for `COc1ccc(NC2CCCN(C(=O)C3(C)CCCCC3)C2)cc1` (stereo unspecified) the value was 7.34 µM; for `COc1ccc(/C=N/Nc2cc(C)nc3ccc(OC)cc23)c(OC)c1`, 18.4 µM. On the same count and under the same terms, under `Cc1cc(N)c2cc(NC(=O)/C=C/c3ccccc3Cl)ccc2n1` stands 29.1 µM; under `O=c1c2ccccc2sn1-c1ccc(F)cc1`, 4.46 µM; under `O=C(O)c1cc(N2C(=O)C=CC2=O)cc(N2C(=O)C=CC2=O)c1`, 24.4 µM. Same read-out and setting: under `CN(C)c1nc(=NCc2cccs2)ss1` stands 18.5 µM; under `CN(C)c1ccc(C=c2c3cc(O)ccc3n3c2cc(-c2ccccc2)[n+]3C)cc1`, 10.8 µM; under `O=c1c2sc3ccccc3c2[nH]c(=S)n1CCN1CCOCC1`, 5.15 µM. `Cc1ccc(C)c(-n2sc3ccc(F)cc3c2=O)c1` gave an IC50 of 7.31 µM. The IC50 values of the last two compounds are within 1.5-fold of each other. On to `Cc1ccc(-n2sc3cc(F)ccc3c2=O)c(C)c1`, for which the IC50 was 6.71 µM. This IC50 and that of the compound before are within 1.5-fold of each other.

`CC1OC(CC(=O)O)CC2=C1C(=O)c1c(O)cccc1C2=O` (stereo unspecified) displayed an IC50 of 13.2 µM. In the case of `O=c1c2ccccc2sn1-c1cccc(Cl)c1`, the IC50 was 38.1 µM. Still for that read-out and setting: under `O=C1C(=Cc2ccco2)CCC1=Cc1ccco1` stands 12.7 µM.

Take `CN(C)c1ccc(/C=C/c2cc[n+](C)c3ccccc23)cc1`: the IC50 turned out to be 23.3 µM. Still for that read-out and setting: for `O=C1C=CC(=O)c2c(O)c(N3CCN(CCO)CC3)c(Cl)c(O)c21` the value was 10.2 µM. Compound `O=C(O)C1CSC(c2ccco2)N1` (stereo unspecified) came in with an IC50 of 10.7 µM. The same measure, in the same setting: for `Cc1c(Cl)sn(-c2ccc(Cl)cc2)c1=O` the value was 12.9 µM; for `O=C1C=CC(=O)c2c(O)c(N3CCN(CCOCCO)CC3)c(Br)c(O)c21`, 31.4 µM; for `O=c1c2ccccc2sn1-c1ccc(Cl)cc1Cl`, 4.22 µM.

`C[n+]1c(-c2ccc(C=NNC(=O)c3ccc(C(=O)NN=Cc4ccc(-c5cn6ccccc6[n+]5C)cc4)cc3)cc2)cn2ccccc21` returned an IC50 of 14.4 µM.

Regarding `O=c1c2cc(F)ccc2sn1-c1ccccc1Cl`, the IC50 stood at 8.92 µM. The same measure, in the same setting: under `O=C(Nc1ccccc1Cl)/C(Cl)=C(\Cl)S(=O)c1ccccc1` (stereo unspecified) stands 12.6 µM; under `O=C1C(Cl)=C(NC(=O)c2ccccc2)C(=O)C(Cl)=C1NC(=O)c1ccccc1`, 22.7 µM. Regarding `CC1=NNC(=O)C1Br` (stereo unspecified), the half-inhibitory concentration (IC50) is 13.6 µM.

`O=c1c2ccc(F)cc2sn1-c1ccccc1` came in with an IC50 of 9.12 µM. The IC50 values of the last two compounds are within 1.5-fold of each other.

Compound `O=c1c2ccccc2sn1-c1ccc(Cl)cc1` displayed an IC50 of 4.44 µM. `O=C1NC(=S)N(c2ccccc2)C(=O)/C1=C/c1ccco1` registered an IC50 of 10.2 µM. Compared with the last compound, the IC50 is about 2.3-fold higher. As to `Cn1ccc(=Nc2ccc(NC(=O)c3ccc(N=c4ccn(C)c5ccc([N+](=O)[O-])cc45)cc3)cc2)cc1`, the IC50 worked out at 14.2 µM. Still for that read-out and setting: for `O=C1C(SCCO)=C(SCCO)C(=O)c2ccccc21` the value was 25.2 µM. In turn, `O=c1c2cc(F)ccc2sn1-c1ccccc1` gave an IC50 of 7.49 µM.

In turn, `COc1ccc(-n2sc3ccccc3c2=O)cc1` displayed an IC50 of 13.3 µM. On the same count and under the same terms, for `Cc1cc(C)c2c(=N)c3ccccc3n(CCCCCCCCn3c4ccccc4c(=N)c4c(C)cc(C)nc43)c2n1` the value was 18 µM; for `CCN(CC)c1ccc(C(=C2C=CC(=[N+](CC)CC)C=C2)c2ccc(N(CC)CC)cc2)cc1`, 35.1 µM; for `CCN1CCN(Cc2ccc(NC(=O)c3ccc(C)c(/C=C/c4cnc(Nc5cc(N6CCNCC6)nc(C)n5)cn4)c3)cc2C(F)(F)F)CC1`, 72.7 µM. Same read-out and setting: under `Nc1ccc(OCc2ccco2)cc1` stands 20.6 µM.

The same assay, now with this note: BCR GAP/Rac1 GTPase, Biomol green phosphate absorbance; at 100 µM (top of the series).
On to `O=C(O)c1cc(N2N=C(C(F)(F)F)/C(=C/C=C/c3ccco3)C2=O)ccc1Cl`, for which the inhibition entry was “inactive”. `CN(C)c1ncc(C2=C(Cl)C(=O)C(N3CCCC3)=C(Cl)C2=O)s1`: the inhibition entry was “inactive”.

For the origin of these results see PubChem BioAssay AID652149 (Molecular Libraries Program, Specialized Chemistry Center, …, 2013).
